Where “and” joins values, the source holds several entries; their conditions need not be identical. Equal values may be shown once. Read-outs that look alike come from different tables or passages of the source. Values belong to the compound of their own block, whether it stands above or below them.
Key:
C. pneumoniae strain K7 = experiment: C. pneumoniae inclusion count inhibition in infected HL cells (immunofluorescence); assay type: cell-based, Chlamydia pneumoniae; settings: for inhibition at 5 µM / reduction in inclusion counts / inhibition against C. pneumoniae: added at 2 hpi, 72 h, 5 μM; for inhibition at 5 µM / IC50 / reduction in inclusion counts / inhibition against C. pneumoniae: strain K7, HL cells; for inhibition at 5 µM: read-out: reduction in inclusion counts / inhibition against C. pneumoniae; for IC50: read-out: IC50 (inclusion counts, dose-response); for concentration that inhibits infectivity and interferes with inclusions: human epithelial HL cells
Experimental: Human epithelial HL cells were grown in a RPMI1640 medium supplemented with 7.5% fetal bovine serum (FBS), 2 mM L-glutamine and 20 μg/ml gentamicin sulfate. A clinical C. pneumoniae isolate Kajaani 7 (K7), originally isolated from a young person suffering from pneumonia was obtained from Professor Pekka Saikku (Department of Medicinal Microbiology, Institute of Diagnostics, University of Oulu, Finland) and a cardiovascular C. pneumoniae isolate CV-6 was obtained from Professor Matthias Maass (Paracelsus Medical University, Salzburg, Austria). The reference strains CWL-029 (VR-1310) and AR-39 (ATCC 53592) were obtained from American Type Culture Collection (ATCC). All strains were propagated in HL cells as previously described. The K7 strain was used in all studies whereas CV-6 and the ATCC reference strains were used to confirm our initial compound screening data.
(§1) For all experiments applying immunofluorescence, HL cells were seeded in 24-well plates with coverslips at density of 4 x 10^5 cells/well and incubated overnight before infection. The cells were inoculated with C. pneumoniae at multiplicity of infection (MOI) 0.2 in the cell growth media supplemented with 1 μg/ml cycloheximide to enhance chlamydial growth. The inoculated cultures were centrifuged at 550 g at 4°C for 1 h and incubated at 37°C for 1 h. Inocula were removed, fresh medium was added into wells and the plates were incubated for 70 h. Afterwards the cultures were fixed with methanol and the coverslips were stained with Pathfinder Chlamydia cell culture confirmation system (Bio-Rad) based on a genus-specific anti-LPS antibody to visualize the host cells and chlamydial inclusions. Detailed protocols for the infection and staining can be found in [29]. Unless otherwise stated in the text, the derivatives were added into the culture medium at 2 hours post infection (hpi), i.e., at the time when inocula were removed. […] DMSO concentration was adjusted to 0.1% in all experiments.
All experiments were carried out as four replicates in minimum and the inclusion counts were determined as mean ± SEM of 4 eye fields per coverslip. For statistical analysis GraphPad Prism software v. 5.0 and Student’s t-test (p < 0.05) were applied.

HL cells = experiment: Resazurin cell viability assay; assay type: cell-based, human; settings: 5 μM, 72 h
Experimental: (§2) HL cells were seeded into 96-well plates at density […] and incubated overnight before starting the exposure. The β^2,2-amino acid derivatives were added at concentrations of 5 μM either in the presence or absence of 1 μg/ml cycloheximide in a final volume of 200 μl and the plates were incubated for 72 h. The resazurin assay was performed as described in Karlsson et al..

C. pneumoniae [1] = experiment: Delayed administration assay; assay type: cell-based, Chlamydia pneumoniae; settings: for reduction in inclusion vacuole counts: 3 μM, added at 6 hpi or later; for inhibition at 3 µM: Chlamydia pneumoniae, added at 2 hpi, read-out: inhibition of inclusion vacuole counts
Experimental: as §1
HL cells were infected as described above and treated with derivatives at concentrations of 3 μM in order to cause inhibition of infection above 50%. The treatment of the infected cells was delayed by 4, 10 and 22 h and inclusions counts were subsequently performed as described above.

C. pneumoniae [2] = experiment: Infectious progeny assay; assay type: cell-based, Chlamydia pneumoniae; settings: for inclusion vacuole counts in the second passage of infection vs untreated control: 5 μM; for suppression of infectious progeny production: administered at 6 hpi or later (data not shown)
Experimental: To measure the effects of the β^2,2-amino acid derivatives on production of new infectious progeny by C. pneumoniae, HL cells were infected with C. pneumoniae as described above in the presence of the derivatives (at a concentration of 5 μM). At 72 hpi, medium was removed from the wells and 200 μl fresh medium was added. The cells were scraped off and then further lysed by vortexing with glass beads, and the lysates were used to infect fresh HL cell monolayers. Inclusion counts in the second passage of infection were determined with immunofluorescent staining as described above, and control wells fixed and stained after the first infectious cycle were used as internal controls.

C. pneumoniae EBs = experiment: Elementary body infectivity assay; assay type: cell-based; settings: Chlamydia pneumoniae; EBs treated with 5 μM for 1 h before inoculation of HL cells; read-out: inhibition of EB infectivity
Experimental: C. pneumoniae EBs were suspended into the HL cell growth medium supplemented with cycloheximide at 400 000 inclusion forming units (IFU)/ml and exposed to 5 μM of the derivatives A1—A6 for 1 h at 4°C. Immediately afterwards, aliquots of the EBs suspensions were used to infect HL cell monolayers as described above (MOI 0.2), resulting in typically 40–60 inclusions per eye field in nontreated control infections.

[3] = test system: C. pneumoniae inclusions in HL cells; assay type: cell-based, Chlamydia pneumoniae; settings: 2.5 μM added at 2 hpi
Experimental: HL cells were seeded in 6-well plates at 2 x 10^6 cells per well and cultured overnight. The cell monolayers were infected with C. pneumoniae (MOI 1) and treated with 2.5 μM of derivative A2 by adding it to the culture medium at 2 hpi based on findings in the dose-response assay. Untreated and uninfected HL control cells were incubated concurrently. The cells were pre-fixed at 24, 48 and 72 hpi with Karnovsky's fixative at 4°C, overnight. The samples were further processed for TEM as described in [30].

[4] = Resazurin cell viability assay; assay type: cell-based, human; settings: human, HL cells
Experimental: as §2

IC50 (C. pneumoniae strain K7; Chlamydia pneumoniae): 2 µM and 1.4 µg/mL
SMILES: NCCNC(=O)C(CN)(Cc1ccc(C(F)(F)F)cc1)Cc1ccc(C(F)(F)F)cc1 [A1]
inhibition at 5 µM (C. pneumoniae strain K7; Chlamydia pneumoniae): 95.6%
concentration that inhibits infectivity and interferes with inclusions (C. pneumoniae strain K7): below 5 μM
effect on host HL cell viability (in words) (HL cells): no substantial effect on host HL cell viability
reduction in inclusion vacuole counts (C. pneumoniae [1]): 10–20%
inhibition at 3 µM (C. pneumoniae [1]): ~70%
inclusion vacuole counts in the second passage of infection vs untreated control (C. pneumoniae [2]): significantly lower
suppression of infectious progeny production (C. pneumoniae [2]): neither A1 nor A2 suppressed C. pneumoniae infectious progeny production
inhibition at 5 µM (C. pneumoniae EBs): ≤ 50%

IC50 (C. pneumoniae strain K7; Chlamydia pneumoniae): 2 µM and 1.3 µg/mL
SMILES: NCCNC(=O)C(CN)(Cc1ccc2ccccc2c1)Cc1ccc2ccccc2c1 [A2]
inhibition at 5 µM (C. pneumoniae strain K7; Chlamydia pneumoniae): 100%
concentration that inhibits infectivity and interferes with inclusions (C. pneumoniae strain K7): below 5 μM
effect on host HL cell viability (in words) (HL cells): no substantial effect on host HL cell viability
reduction in inclusion vacuole counts (C. pneumoniae [1]): 20–30%
inhibition at 3 µM (C. pneumoniae [1]): ~80%
inclusion vacuole counts in the second passage of infection vs untreated control (C. pneumoniae [2]): significantly lower
suppression of infectious progeny production (C. pneumoniae [2]): neither A1 nor A2 suppressed C. pneumoniae infectious progeny production
inhibition at 5 µM (C. pneumoniae EBs): ≤ 50%
TEM finding in infected HL cells ([3]; 24 hpi): affected inclusion vacuoles were visible
TEM finding in infected HL cells ([3]; 48 hpi): smaller inclusions, which only contained fragments of RBs and EBs
TEM finding in infected HL cells ([3]; 72 hpi): no RBs or EBs were present

SMILES: CC(C)(C)c1ccc(CC(CN)(Cc2ccc(C(C)(C)C)cc2)C(=O)NCCN)cc1 [A3]
reduction in inclusion counts / inhibition against C. pneumoniae (C. pneumoniae strain K7): full inhibition
viability at 72 h, 5 µM [4]: 30.6%
inhibition at 5 µM (C. pneumoniae EBs): 77%

SMILES: CN(C)CCOC(=O)C(CN)(Cc1ccc(C(F)(F)F)cc1)Cc1ccc(C(F)(F)F)cc1 [A4]
inhibition at 5 µM (C. pneumoniae strain K7; Chlamydia pneumoniae): 23.2%
effect on host HL cell viability (in words) (HL cells): no cytotoxic effects
inhibition at 5 µM (C. pneumoniae EBs): 20%

SMILES: CN(C)CCOC(=O)C(CN)(Cc1ccc2ccccc2c1)Cc1ccc2ccccc2c1 [A5]
inhibition at 5 µM (C. pneumoniae strain K7; Chlamydia pneumoniae): 89.8%
reduction of HL cell viability (HL cells): 35.6%
inhibition at 5 µM (C. pneumoniae EBs): 66%

SMILES: CN(C)CCOC(=O)C(CN)(Cc1ccc(C(C)(C)C)cc1)Cc1ccc(C(C)(C)C)cc1 [A6]
reduction in inclusion counts / inhibition against C. pneumoniae (C. pneumoniae strain K7): full inhibition
viability at 72 h, 5 µM [4]: 18.4%
inhibition at 5 µM (C. pneumoniae EBs): 90%

SMILES: CO[C@H]1/C=C/O[C@@]2(C)Oc3c(C)c(O)c4c(O)c(c(/C=N/N5CCN(C)CC5)c(O)c4c3C2=O)NC(=O)/C(C)=C\C=C\[C@H](C)[C@H](O)[C@@H](C)[C@@H](O)[C@@H](C)[C@H](OC(C)=O)[C@@H]1C [Rifampicin, reference compound]
inhibition at 0.012 µM (C. pneumoniae strain K7; Chlamydia pneumoniae, K7, positive control, 12 nM, read-out: inhibition in C. pneumoniae inclusion counts): 95 to 98%

SMILES: CC[C@H]1OC(=O)[C@H](C)[C@@H](O[C@H]2C[C@@](C)(OC)[C@@H](O)[C@H](C)O2)[C@H](C)[C@@H](O[C@@H]2O[C@H](C)C[C@H](N(C)C)[C@H]2O)[C@](C)(O)C[C@@H](C)CN(C)[C@H](C)[C@@H](O)[C@]1(C)O [azithromycin, reference compound]
inhibition at 0.02 µM (C. pneumoniae strain K7; Chlamydia pneumoniae, K7, positive control, 20 nM, read-out: inhibition in C. pneumoniae inclusion counts): 95 to 98%
